From US8871946B2, “Benzimidazole-4-carboxamide derivatives, their preparation methods, pharmaceutical compositions and their uses” (Zhejiang Medicine Co., Ltd. Xinchang Pharmaceutical Factory, priority 2009, dated 2014)
≈ marks a conversion by molar mass, not a printed value.

Test system: coxsackie B3 viruses
Test: Measures of anti-coxsackie B3 viruses activity of the compounds in Vero cells
Format: cell-based
Conditions: half inhibitory concentration for viruses
Excerpt: Measures of Anti-Coxsackie B3 Viruses Activity of the Compounds The products are applied for measures of antivirus properties of Vero cells. Refer to the results of Table 3: datum of anti-coxsackie B3 viruses activities of some compounds. […] IC50 indicates half inhibitory concentration for viruses. RBV indicates triazole nucleoside, is also called ribavirin, virazole.

| Compound | IC50 [µg/mL] |
| --- | --- |
| 2-(2-N-methyl-4-N- methylpiperazinyl)-1H- benzimidazole-4-(N-o- fluorophenyl)amide | 8.9 |
| O=C(Nc1ccc(O)cc1)c1cccc2[nH]c(-c3ccc(O)c(O)c3O)nc12 [2-(2,3,4-trihydroxyphenyl)-1H-benzimidazole-4-(N-p-hydroxyphenyl)amide] | 11.2 (≈ 29.7 µM) |
| CN1CCN(C)C(c2nc3c(C(=O)Nc4ccc(N)cc4)cccc3[nH]2)C1 (stereo not shown) [2-(2-N-methyl-4-N-methylpiperazinyl)-1H-benzimidazole-4-(N-p-aminophenyl)amide] | 3.5 (≈ 9.6 µM) |
| O=C(Nc1ccccc1F)c1cccc2[nH]c(-c3cnc(-c4ccccc4)nc3)nc12 [2-(2-phenyl-5-pyrimidinyl)-1H-benzimidazole-4-(N-o-fluorophenyl)amide] | 12.6 (≈ 30.8 µM) |
| O=C(Nc1ccccc1O)c1cccc2[nH]c(-c3cnc(-c4ccccc4)nc3)nc12 [2-(2-phenyl-5-pyrimidinyl)-1H-benzimidazole-4-(N-o-hydroxyphenyl)amide] | 13.2 (≈ 32.4 µM) |
| Nc1ccc(NC(=O)c2cccc3[nH]c(-c4cnc(-c5ccccc5)nc4)nc23)cc1 [2-(2-phenyl-5-pyrimidinyl)-1H-benzimidazole-4-(N-p-aminophenyl)amide] | 15.2 (≈ 37.4 µM) |
| O=C(Nc1ccccc1O)c1cccc2[nH]c(-c3cnccn3)nc12 [2-(2-pyrazinyl)-1H -benzimidazole-4-(N-o-hydroxyphenyl)amide] | 3.5 (≈ 10.6 µM) |
| O=C(Nc1ccccc1F)c1cccc2[nH]c(-c3cnccn3)nc12 [2-(2-pyrazinyl)-1H-benzimidazole-4-(N-o-fluorophenyl)amide] | 6.5 (≈ 19.5 µM) |
| Nc1ccc(NC(=O)c2cccc3[nH]c(-c4cnccn4)nc23)cc1 [2-(2-pyrazinyl)-1H-benzimidazole-4-(N-p-aminophenyl)amide] | 4.2 (≈ 12.7 µM) |
| CC(NC(=O)c1cccc2[nH]c(-c3ccccn3)nc12)C(O)c1ccc(Cl)cc1 (stereo not shown) [2-(2-pyridyl)-1H-benzimidazole-4-[N-(1-methyl-2-p-chlorophenylhydroxyethyl)]amide] | 4.115 (≈ 10.1 µM) |
| O=C(Nc1ccccc1F)c1cccc2[nH]c(-c3ncccn3)nc12 [2-(2-pyrimidinyl)-1H-benzimidazole-4-(N-o-fluorophenyl)amide] | 8.8 (≈ 26.4 µM) |
| O=C(Nc1ccccc1O)c1cccc2[nH]c(-c3ncccn3)nc12 [2-(2-pyrimidinyl)-1H-benzimidazole-4-(N-o-hydroxyphenyl)amide] | 7.8 (≈ 23.5 µM) |
| Nc1ccc(NC(=O)c2cccc3[nH]c(-c4ncccn4)nc23)cc1 [2-(2-pyrimidinyl)-1H-benzimidazole-4-(N-p-aminophenyl)amide] | 9.8 (≈ 29.7 µM) |
| O=C(Nc1ccccc1F)c1cccc2[nH]c(-c3ccc[nH]3)nc12 [2-(2-pyrrolyl)-1H-benzimidazole-4-(N-o-fluorophenyl)amide] | 9.2 (≈ 28.7 µM) |
| O=C(Nc1ccccc1F)c1cccc2[nH]c(-c3ccc4ccccc4n3)nc12 [2-(2-quinolinyl)-1H-benzimidazole-4-(N-o-fluorophenyl)amide] | 15.3 (≈ 40 µM) |
| CC(NC(=O)c1cccc2[nH]c(-c3cccs3)nc12)C(O)c1ccc(Cl)cc1 (stereo not shown) [2-(2-thienyl)-1H-benzimidazole-4-[N-(1-methyl-2-p-chlorophenylhydroxyethyl)]amide] | 5.30 (≈ 12.9 µM) |
| Cc1cc(C)c(-c2nc3c(C(=O)Nc4ccccc4O)cccc3[nH]2)[nH]1 [2-(3,5-dimethyl-2-pyrrolyl)-1H-benzimidazole-4-(N-o-hydroxyphenyl)amide] | 10.2 (≈ 29.4 µM) |
| Nc1ccc(NC(=O)c2cccc3[nH]c(-c4c[nH]c5ccccc45)nc23)cc1 [2-(3-indolyl)-1H-benzimidazole-4-(N-p-aminophenyl)amide] | 10.8 (≈ 29.4 µM) |
| O=C(Nc1ccccc1F)c1cccc2[nH]c(-c3cccnn3)nc12 [2-(3-pyridazinyl)-1H-benzimidazole-4-(N-o-fluorophenyl)amide] | 12.3 (≈ 36.9 µM) |
| O=C(Nc1ccccc1O)c1cccc2[nH]c(-c3cccnn3)nc12 [2-(3-pyridazinyl)-1H-benzimidazole-4-(N-o-hydroxyphenyl)amide] | 15.2 (≈ 45.9 µM) |
| Nc1ccc(NC(=O)c2cccc3[nH]c(-c4cccnn4)nc23)cc1 [2-(3-pyridazinyl)-1H-benzimidazole-4-(N-p-aminophenyl)amide] | 10.2 (≈ 30.9 µM) |
| CC(NC(=O)c1cccc2[nH]c(-c3cccnc3)nc12)C(O)c1ccc(Cl)cc1 (stereo not shown) [2-(3-pyridyl)-1H-benzimidazole-4-[N-(1-methyl-2-p-chlorophenylhydroxyethyl)]amide] | 2.37 (≈ 5.82 µM) |
| Nc1ncnc(Cl)c1-c1nc2c(C(=O)Nc3ccccc3F)cccc2[nH]1 [2-(4-amino-6-chloro-5-pyrimidinyl)-1H-benzimidazole-4-(N-o-fluorophenyl)amide] | 11.3 (≈ 29.5 µM) |

| Compound | IC50 [µg/mL] |
| --- | --- |
| Nc1ncnc(Cl)c1-c1nc2c(C(=O)Nc3ccccc3O)cccc2[nH]1 [2-(4-amino-6-chloro-5-pyrimidinyl)-1H-benzimidazole-4-(N-o-hydroxyphenyl)amide] | 12.3 (≈ 32.3 µM) |
| Nc1ccc(NC(=O)c2cccc3[nH]c(-c4c(N)ncnc4Cl)nc23)cc1 [2-(4-amino-6-chloro-5-pyrimidinyl)-1H-benzimidazole-4-(N-p-aminophenyl)amide] | 14.1 (≈ 37.1 µM) |
| CN(C)c1ccnc(-c2nc3c(C(=O)Nc4ccc(N)cc4)cccc3[nH]2)c1 [2-(4-dimethylaminopyridyl)-1H-benzimidazole-4-(N-p-aminophenyl)amide] | 10.2 (≈ 27.4 µM) |
| COc1ccnc(-c2nc3c(C(=O)Nc4ccccc4O)cccc3[nH]2)c1 [2-(4-methoxypyridyl)-1H-benzimidazole-4-(N-o-hydroxyphenyl)amide] | 16.2 (≈ 45 µM) |
| COc1ccnc(-c2nc3c(C(=O)Nc4ccc(N)cc4)cccc3[nH]2)c1 [2-(4-methoxypyridyl)-1H-benzimidazole-4-(N-p-aminophenyl)amide] | 13.4 (≈ 37.3 µM) |
| Cc1nc(-c2nc3c(C(=O)Nc4ccccc4F)cccc3[nH]2)sc1N [2-(4-methyl-5-aminothiazolyl)-1H-benzimidazole-4-(N-o-fluorophenyl)amide] | 10.2 (≈ 27.8 µM) |
| Cc1nc(-c2nc3c(C(=O)Nc4ccc(N)cc4)cccc3[nH]2)sc1N [2-(4-methyl-5-aminothiazolyl)-1H-benzimidazole-4-(N-p-aminophenyl)amide] | 9.8 (≈ 26.9 µM) |
| Nc1ccc(-c2nc3c(C(=O)Nc4ccccc4F)cccc3[nH]2)s1 [2-(5-amino-2-thienyl)-1H-benzimidazole-4-(N-o-fluorophenyl)amide] | 3.5 (≈ 9.93 µM) |
| Cc1ccccc1NC(=O)c1cccc2[nH]c(-c3ccc(N)s3)nc12 [2-(5-amino-2-thienyl)-1H-benzimidazole-4-(N-o-methylphenyl)amide] | 8.7 (≈ 25 µM) |
| Nc1ccc(-c2nc3c(C(=O)Nc4ccc(O)cc4)cccc3[nH]2)s1 [2-(5-amino-2-thienyl)-1H-benzimidazole-4-(N-p-hydroxyphenyl)amide] | 6.5 (≈ 18.6 µM) |
| Cc1ccc(-c2nc3c(C(=O)Nc4ccccc4O)cccc3[nH]2)s1 [2-(5-methy-2-thienyl)-1H-benzimidazole-4-(N-o-hydroxyphenyl)amide] | 18.5 (≈ 52.9 µM) |
| CC(NC(=O)c1cccc2[nH]c(-c3ccc([N+](=O)[O-])s3)nc12)C(O)c1ccc(Cl)cc1 (stereo not shown) [2-(5-nitro-2-thienyl)-1H-benzimidazole-4-(N-(1-methyl-2-p-chlorophenylhydroxyethyl))-amide] | 7.12 (≈ 15.6 µM) |
| O=C(Nc1ccccc1F)c1cccc2[nH]c(-c3ccc([N+](=O)[O-])s3)nc12 [2-(5-nitro-2-thienyl)-1H-benzimidazole-4-(N-(2-fluorophenyl))-amide] | >9.25 |
| Cn1cccc1-c1nc2c(C(=O)Nc3ccccc3F)cccc2[nH]1 [2-(N-methyl-2-pyrrolyl)-1H-benzimidazole-4-(N-o-fluorophenyl)amide] | 13.2 (≈ 39.5 µM) |
| O=C(Nc1ccccc1F)c1cccc2[nH]c(N3CCNCC3)nc12 [2-N-piperazinyl-1H-benzimidazole-4-(N-o-fluorophenyl)amide] | 4.8 (≈ 14.1 µM) |
| Nc1ccc(NC(=O)c2cccc3[nH]c(N4CCNCC4)nc23)cc1 [2-N-piperazinyl-1H-benzimidazole-4-(N-p-aminophenyl)amide] | 6.3 (≈ 18.7 µM) |
| O=C(Nc1ccccc1F)c1cccc2[nH]c(-c3cccs3)nc12 [2-thienyl-1H-benzimidazole-4-(N-(2-fluorophenyl)-amide] | 1.06 (≈ 3.14 µM) |
| Nc1ccc(NC(=O)c2cccc3[nH]c(-c4cncs4)nc23)cc1 [5-thiazolyl-1H-benzimidazole-4-(N-p-aminophenyl)amide] | 13.5 (≈ 40.3 µM) |
| CN1CCN(C)C(c2nc3c(C(=O)NC(CO)C(O)c4ccc([N+](=O)[O-])cc4)cccc3[nH]2)C1 (stereo not shown) [(L)-2-(2-N-methyl-4-N-methylpiperazinyl)-1H-benzimidazole-4-[N-(1-hydroxymethyl-2-p-nitrophenylhydroxyethyl)]amide] | 9.2 (≈ 19.6 µM) |
| O=C(NC(CO)C(O)c1ccc([N+](=O)[O-])cc1)c1cccc2[nH]c(-c3cnc(-c4ccccc4)nc3)nc12 (stereo not shown) [(L)-2-(2-phenyl-5-pyrimidinyl)-1H-benzimidazole-4-[N-(1-hydroxymethyl-2-p-nitrophenylhydroxyethyl)]amide] | 12.0 (≈ 23.5 µM) |
| O=C(NC(CO)C(O)c1ccc([N+](=O)[O-])cc1)c1cccc2[nH]c(C3CCCCN3)nc12 (stereo not shown) [(L)-2-(2-piperidinyl)-1H-benzimidazole-4-[N-(1-hydroxymethyl-2-p-nitrophenylhydroxyethyl)]amide] | 17.2 (≈ 39.1 µM) |
| O=C(NC(CO)C(O)c1ccc([N+](=O)[O-])cc1)c1cccc2[nH]c(-c3cnccn3)nc12 (stereo not shown) [(L)-2-(2-pyrazinyl)-1H-benzimidazole-4-[N-(1-hydroxymethyl-2-p-nitrophenylhydroxyethyl)]amide] | 2.3 (≈ 5.29 µM) |
| O=C(NC(CO)C(O)c1ccc([N+](=O)[O-])cc1)c1cccc2[nH]c(-c3ccccn3)nc12 (stereo not shown) [(L)-2-(2-pyridyl)-1H-benzimidazole-4-[N-(1-hydroxymethyl-2-p-nitrophenylhydroxyethyl)]amide] | 1.76 (≈ 4.06 µM) |
